# Read-outs that look alike come from different tables or passages of the source.
# How the values were obtained:
# Format in all cases: cell-based
# [1] = system: SK-BR-3; assay: SRB colorimetric cell growth inhibition assay, SK-BR-3; details: for GI50: GI=growth inhibition, read-out: GI50 SK-BR-3
# How it was run: (§1)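 Sulforhodamine B colorimetric readout measured cell growth and viability after continuous compound exposure of human cancer cell lines in 96-well plates. Triplicate wells gave mean ± SD, from which growth inhibition (GI), cytostatic total growth inhibition (TGI) and cytotoxic cell killing (LC) were calculated.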
# [2] = system: DU-145; assay: SRB colorimetric cell growth inhibition assay, DU-145; details: for GI50: GI=growth inhibition, read-out: GI50 DU-145
# How it was run: as §1
# [3] = system: HeLa-APL; assay: SRB colorimetric cell growth inhibition assay, HeLa-APL (aplidine resistant); details: Homo sapiens; for GI50: read-out: GI50 HELA-APL; for CC50: cell killing (cytotoxic effect); for IC (TGI): read-out: TGI HELA-APL
# How it was run: as §1
# [4] = system: K-562; assay: SRB colorimetric cell growth inhibition assay, K-562; details: for GI50: GI=growth inhibition, read-out: GI50 K-562; for CC50: cell killing (cytotoxic effect); for IC (TGI): total growth inhibition (cytostatic effect), read-out: TGI K-562
# How it was run: as §1
# [5] = system: IGROV-ET; assay: SRB colorimetric cell growth inhibition assay, IGROV-ET (ET-743 resistant); details: for GI50: GI=growth inhibition, read-out: GI50 IGROV-ET
# How it was run: as §1
# [6] = system: LNCaP; assay: SRB colorimetric cell growth inhibition assay, LNCaP; details: for GI50: GI=growth inhibition, read-out: GI50 LN-caP
# Excerpt: The finality of these assays is to interrupt the growth of an “in vitro” tumor cell culture by means a continued exhibition of the cells to the sample to be testing.
# A colorimetric type of assay, using sulforhodamine B (SRB) reaction has been adapted for a quantitative measurement of cell growth and viability (following the technique described by P. A. Skehan, et al., J. Natl. Cancer Inst. 1990, 82, 1107-1112).
# This form of assay employs 96 well cell culture microplates of 9 mm diameter (T. Mosmann et al., J. of Immunological Methods 1983, 65, 55-63; G. T. Faircloth et al., J. of Tissue and Culture Methods 1988, 11, 201-205).
# Most of the cell lines are obtained from American Type Culture Collection (ATCC) derived from different human cancer types.
# The values for mean +/− SD of data from triplicate wells are calculated. Some parameters for cellular responses can be calculated: GI=growth inhibition, TGI=total growth inhibition (cytostatic effect) and LC=cell killing (cytotoxic effect).
# [7] = system: PANC-1; assay: SRB colorimetric cell growth inhibition assay, PANC-1; details: for GI50: GI=growth inhibition, read-out: GI50 PANC-1; for CC50: cell killing (cytotoxic effect); for IC (TGI): total growth inhibition (cytostatic effect), read-out: TGI PANC-1
# How it was run: as §1
# [8] = system: IGROV; assay: SRB colorimetric cell growth inhibition assay, IGROV; details: for GI50: GI=growth inhibition, read-out: GI50 IGROV
# How it was run: as §1
# [9] = system: LoVo; assay: SRB colorimetric cell growth inhibition assay, LoVo; details: for GI50: GI=growth inhibition, read-out: GI50 LOVO; for CC50: cell killing (cytotoxic effect); for IC (TGI): total growth inhibition (cytostatic effect), read-out: TGI LOVO
# How it was run: as §1
# [10] = system: HT-29; assay: SRB colorimetric cell growth inhibition assay, HT-29; details: for GI50: GI=growth inhibition, read-out: GI50 HT-29; for CC50: cell killing (cytotoxic effect); for IC (TGI): total growth inhibition (cytostatic effect), read-out: TGI HT-29
# How it was run: as §1
# [11] = system: LoVo-Dox; assay: SRB colorimetric cell growth inhibition assay, LoVo-Dox (MDR); details: for GI50: GI=growth inhibition, read-out: GI50 LOVO-DOX; for CC50: cell killing (cytotoxic effect); for IC (TGI): total growth inhibition (cytostatic effect), read-out: TGI LOVO-DOX
# How it was run: as §1
# [12] = system: HeLa; assay: SRB colorimetric cell growth inhibition assay, HeLa; details: Homo sapiens, HeLa; for GI50: GI=growth inhibition, read-out: GI50 HELA; for CC50: cell killing (cytotoxic effect); for IC (TGI): read-out: TGI HELA
# How it was run: as §1
# [13] = system: SK-MEL-28; assay: SRB colorimetric cell growth inhibition assay, SK-MEL-28; details: for GI50: GI=growth inhibition, read-out: GI50 MEL-28; for IC (TGI): total growth inhibition (cytostatic effect), read-out: TGI MEL-28
# How it was run: as §1
# [14] = system: A-549; assay: SRB colorimetric cell growth inhibition assay, A-549; details: for GI50: GI=growth inhibition, read-out: GI50 A-549; for CC50: cell killing (cytotoxic effect); for IC (TGI): total growth inhibition (cytostatic effect), read-out: TGI A-549
# How it was run: as §1
# [15] = Homo sapiens, SK-MEL-28, MEL-28
compound,measurement,setting,value
COc1cc(-c2c3c4cc(OC)c(OC(=O)[C@H](C)N)cc4oc(=O)c3n3ccc4cc(OC(=O)[C@H](C)N)c(OC)cc4c23)ccc1OC(=O)[C@H](C)N [Compound 199],GI50,"[1]; Homo sapiens, SK-BR-3, SK-BR-3",46.6 nM
same,CC50,"[1]; Homo sapiens, SK-BR-3, SK-BR-3, cell killing (cytotoxic effect), read-out: LC50 SK-BR-3",8280 nM
same,IC (TGI),"[1]; Homo sapiens, SK-BR-3, SK-BR-3, total growth inhibition (cytostatic effect), read-out: TGI SK-BR-3",97.4 nM
same,GI50,"[2]; Homo sapiens, DU-145, DU-145",3.73 nM
same,CC50,"[2]; Homo sapiens, DU-145, DU-145, cell killing (cytotoxic effect), read-out: LC50 DU-145",37.2 nM
same,IC (TGI),"[2]; Homo sapiens, DU-145, DU-145, total growth inhibition (cytostatic effect), read-out: TGI DU-145",9.93 nM
same,GI50,"[3]; HELA-APL, GI=growth inhibition",71.8 nM
same,CC50,"[3]; HELA-APL, read-out: LC50 HELA-APL",574 nM
same,IC (TGI),"[3]; HELA-APL, total growth inhibition (cytostatic effect)",242 nM
same,GI50,"[4]; Homo sapiens, K562, K-562",11.2 nM
same,CC50,"[4]; Homo sapiens, K562, K-562, read-out: LC50 K-562",281 nM
same,IC (TGI),"[4]; Homo sapiens, K562, K-562",55.5 nM
same,GI50,"[5]; Homo sapiens, IGROV-ET",31.3 nM
same,CC50,"[5]; Homo sapiens, IGROV-ET, cell killing (cytotoxic effect), read-out: LC50 IGROV-ET",12200 nM
same,IC (TGI),"[5]; Homo sapiens, IGROV-ET, total growth inhibition (cytostatic effect), read-out: TGI IGROV-ET",159 nM
same,GI50,"[6]; Homo sapiens, LNCaP, LN-caP",15.8 nM
same,CC50,"[6]; Homo sapiens, LNCaP, LN-caP, cell killing (cytotoxic effect), read-out: LC50 LN-caP",392 nM
same,IC (TGI),"[6]; Homo sapiens, LNCaP, LN-caP, total growth inhibition (cytostatic effect), read-out: TGI LN-caP",89.2 nM
same,GI50,"[7]; Homo sapiens, PANC-1, PANC-1",36.9 nM
same,CC50,"[7]; Homo sapiens, PANC-1, PANC-1, read-out: LC50 PANC-1",8080 nM
same,IC (TGI),"[7]; Homo sapiens, PANC-1, PANC-1",276 nM
same,GI50,"[8]; Homo sapiens, IGROV",18.9 nM
same,CC50,"[8]; Homo sapiens, IGROV, cell killing (cytotoxic effect), read-out: LC50 IGROV",873 nM
same,IC (TGI),"[8]; Homo sapiens, IGROV, total growth inhibition (cytostatic effect), read-out: TGI IGROV",96.2 nM
same,GI50,"[9]; Homo sapiens, LoVo",128 nM
same,CC50,"[9]; Homo sapiens, LoVo, read-out: LC50 LOVO",879 nM
same,IC (TGI),"[9]; Homo sapiens, LoVo",335 nM
same,GI50,"[10]; Homo sapiens, HT-29, HT-29",2140 nM
same,CC50,"[10]; Homo sapiens, HT-29, HT-29, read-out: LC50 HT-29",12200 nM
same,IC (TGI),"[10]; Homo sapiens, HT-29, HT-29",6710 nM
same,GI50,"[11]; Homo sapiens, LOVO-DOX",73.7 nM
same,CC50,"[11]; Homo sapiens, LOVO-DOX, read-out: LC50 LOVO-DOX",12200 nM
same,IC (TGI),"[11]; Homo sapiens, LOVO-DOX",499 nM
same,GI50,[12],29.9 nM
same,CC50,[12]; read-out: LC50 HELA,651 nM
same,IC (TGI),[12]; total growth inhibition (cytostatic effect),199 nM
same,GI50,[13]; [15],32.6 nM
same,CC50,"[13]; Homo sapiens, SK-MEL-28, MEL-28, cell killing (cytotoxic effect), read-out: LC50 MEL-28",7040 nM
same,IC (TGI),[13]; [15],151 nM
same,GI50,"[14]; Homo sapiens, A549, A-549",60.6 nM
same,CC50,"[14]; Homo sapiens, A549, A-549, read-out: LC50 A-549",12200 nM
same,IC (TGI),"[14]; Homo sapiens, A549, A-549",1330 nM
COc1cc(-c2c3c4cc(OC)c(OC(=O)[C@@H](N)C(C)C)cc4oc(=O)c3n3ccc4c(OC(=O)[C@@H](N)C(C)C)c(OC)c(OC)cc4c23)ccc1OC(=O)[C@@H](N)C(C)C [Compound 190],GI50,[1]; SK-BR-3,92.2 nM
same,TGI SK-BR-3,"[1]; SK-BR-3, total growth inhibition (cytostatic effect)",3.83E−07 Molar
same,CC50,[1]; human,2630 nM
same,GI50,[2]; DU-145,57.5 nM
same,TGI DU-145,"[2]; DU-145, total growth inhibition (cytostatic effect)",2.63E−07 Molar
same,CC50,[2]; human,10700 nM
same,GI50,[3],89.9 nM
same,CC50,"[3]; read-out: LC50 HELA-APL, HELA-APL",5200 nM
same,IC (TGI),[3],1720 nM
same,IC (TGI),"[4]; Homo sapiens, K562, K-562",7120 nM
same,CC50,"[4]; Homo sapiens, K562, read-out: LC50 K-562, K-562",10700 nM
same,GI50,[4]; K-562,71.8 nM
same,GI50,[5]; IGROV-ET,102 nM
same,TGI IGROV-ET,"[5]; IGROV-ET, total growth inhibition (cytostatic effect)",1.20E−06 Molar
same,CC50,[5]; human,6420 nM
same,GI50,[6]; LN-caP,48.6 nM
same,TGI LN-caP,"[6]; LN-caP, total growth inhibition (cytostatic effect)",2.97E−07 Molar
same,CC50,[6]; human,1970 nM
same,IC (TGI),"[7]; Homo sapiens, PANC-1, PANC-1",3500 nM
same,CC50,"[7]; Homo sapiens, PANC-1, read-out: LC50 PANC-1, PANC-1",10700 nM
same,GI50,[7]; PANC-1,376 nM
same,GI50,[8]; IGROV,134 nM
same,TGI IGROV,"[8]; IGROV, total growth inhibition (cytostatic effect)",8.95E−07 Molar
same,CC50,[8]; human,8320 nM
same,CC50,"[9]; Homo sapiens, LoVo, read-out: LC50 LOVO, LOVO",5460 nM
same,IC (TGI),"[9]; Homo sapiens, LoVo",1200 nM
same,GI50,[9]; LOVO,285 nM
same,GI50,[10]; HT-29,2990 nM
same,CC50,"[10]; Homo sapiens, HT-29, read-out: LC50 HT-29, HT-29",10700 nM
same,IC (TGI),"[10]; Homo sapiens, HT-29",10700 nM
same,IC (TGI),"[11]; Homo sapiens, LOVO-DOX",1370 nM
same,CC50,"[11]; Homo sapiens, read-out: LC50 LOVO-DOX, LOVO-DOX",7680 nM
same,GI50,[11]; LOVO-DOX,310 nM
same,CC50,"[12]; read-out: LC50 HELA, HELA",3930 nM
same,IC (TGI),[12],1310 nM
same,GI50,[12],83.3 nM
same,IC (TGI),[13]; [15],10700 nM
same,GI50,[13]; MEL-28,9150 nM
same,CC50,[13]; human,10700 nM
same,GI50,[14]; A-549,167 nM
same,IC (TGI),"[14]; Homo sapiens, A549, A-549",1660 nM
same,CC50,"[14]; Homo sapiens, A549, read-out: LC50 A-549, A-549",10700 nM

# Reference: patent publication US7396837B2, “Antitumoral analogs of lamellarins” (Pharma Mar, S.A.U., priority 2002, dated 2008)
